ChEMBL document CHEMBL3751793, “Preparation of N-Phenyl-lactam Derivatives Capable of Stimulating Neurogenesis and Their Use in the Treatment of Neurological Disorders” (2015)

System: NSC
Test: Increase in cell proliferation of human NSC cells assessed as increase in ATP level after 4 days by CelltiterGlo assay
Format: functional

`COc1cc(N2CCC(c3cccc(Cl)c3)C2=O)ccc1-c1cn[nH]c1` (stereo not drawn) was tested. Which EC150 did it give?
Its EC150 is 65.9 nM.

With `COc1cccc(C2CCN(c3ccc(-c4cnco4)c(OC)c3)C2=O)c1` (stereo not drawn) as the compound, how does the EC150 read?
The EC150 was 81.4 nM.

With `COc1cccc(C2CCN(c3ccc(-c4cn[nH]c4)c(OC)c3)C2=O)c1` (stereo not drawn) as the compound, how does the EC150 read?
Its EC150 is 29.9 nM.

For `COc1cc(N2CCN(Cc3cccc(OC(F)(F)F)c3)C2=O)ccc1-c1cn[nH]c1`, which EC150 is on record?
The EC150 was 9.2 nM.

How did the EC150 turn out when `COc1cccc(C2CCN(c3ccc(-c4ccncc4)cc3)C2=O)c1` (stereo not drawn) was run?
Its EC150 is 15.5 nM.

How did the EC150 turn out when `COc1cc(N2CCN(Cc3ccccc3C(F)(F)F)C2=O)ccc1-c1ccncc1` was run?
Its EC150 is 35.1 nM.

Which EC150 does the source give for `COc1cc(N2CCC(c3ccccc3)C2=O)ccc1-c1cn[nH]c1` (stereo not drawn) here?
The EC150 was 41.4 nM.

Which EC150 does the source give for `COc1cccc(CN2CCN(c3ccc(-c4cn[nH]c4)c(OC)c3)C2=O)c1` here?
The EC150 was 23.9 nM.

How did the EC150 turn out when `COc1cccc(CN2CCN(c3ccc(-c4cn[nH]c4)c(F)c3)C2=O)c1` was run?
Its EC150 is 15.7 nM.

For `COc1cc(N2CCN(Cc3cccc(F)c3)C2=O)ccc1-c1cn[nH]c1`, which EC150 is on record?
The EC150 was 47 nM.

For `CCOc1cccc(CN2CCN(c3ccc(-c4cn[nH]c4)c(OC)c3)C2=O)c1`, which EC150 is on record?
The EC150 was 73.9 nM.

With `COc1cc(N2CCN(Cc3cccc(C(F)(F)F)c3)C2=O)ccc1-c1cn[nH]c1` as the compound, how does the EC150 read?
The EC150 was 8.6 nM.

With `COc1cc(N2CCN(Cc3cccc(C)c3)C2=O)ccc1-c1ccncc1` as the compound, how does the EC150 read?
Its EC150 is 29.8 nM.

How did the EC150 turn out when `COc1cc(N2CCN(Cc3ccncc3)C2=O)ccc1-c1cn[nH]c1` was run?
Its EC150 is 42 nM.

With `COc1cccc(C2CCN(c3ccc(-c4ccncc4)c(OC)c3)C2=O)c1` (stereo not drawn) as the compound, how does the EC150 read?
Its EC150 is 61.3 nM.

For `COc1cccc(CN2CCN(c3ccc(-c4cn[nH]c4)cc3F)C2=O)c1`, which EC150 is on record?
The EC150 was 41.6 nM.

`O=C1C(c2ccc(F)cc2)CCN1c1ccc(-c2cn[nH]c2)cc1` (stereo not drawn) was tested. Which EC150 did it give?
Its EC150 is 41.7 nM.

With `COc1cc(N2CCC(c3cccc(F)c3)C2=O)ccc1-c1cn[nH]c1` (stereo not drawn) as the compound, how does the EC150 read?
The EC150 was 77.6 nM.
